US20250367299A1, “GAMMA-HYDRO[…] AND PROCESSES FOR MAKING AND USING THEM” (Zevra Therapeutics, Inc., priority 2022, published 2025)

Test: Pharmacokinetics of GHB in plasma after oral gavage of GHB delivering compounds, with relative oral bioavailability vs sodium oxybate
Conditions: vehicle water; for % AUC0-4 hr, relative oral bioavailability vs study comparator (sodium oxybate) / % Cmax, relative oral bioavailability vs study comparator (sodium oxybate): mean conjugate/mean comparator
[1] = dose molar equivalent of 100 mg/kg NaGHB
[2] = dose equivalent to 80 mg/kg NaGHB

Compound	% AUC0-4 hr, relative oral bioavailability vs study comparator (sodium oxybate) [1] [%]	% Cmax, relative oral bioavailability vs study comparator (sodium oxybate) [1] [%]	Tmax of GHB in plasma (oral gavage, dose molar equivalent of 100 mg/kg NaGHB) [min]	% AUC0-4 hr, relative oral bioavailability vs study comparator (sodium oxybate) [2] [%]	% Cmax, relative oral bioavailability vs study comparator (sodium oxybate) [2] [%]
O=C1CCCO1 [GBL]	27	70	15	–	–
CCOC(=O)OCCCC(=O)O [O-(ethoxycarbonyl)-GHB, O-(Ethoxycarbonyl)-GHB]	–	–	–	54	51
